We go through 16 molecules from article PMC7831505, “Monosubstituted Acetophenone Thiosemicarbazones as Potent Inhibitors of Tyrosinase: Synthesis, Inhibitory Studies, and Molecular Docking” (Pharmaceuticals, 2021).

Where “and” joins values, the source holds several entries; their conditions need not be identical. Equal entries are not always repeated. Some results are limits rather than exact numbers.

Assay [1] deals with mushroom tyrosinase. Description: Tyrosinase enzymatic assay (diphenolase activity, dose-response IC50). Particulars: for IC50: L-DOPA 1 mM as substrate, pH 6.8, 25 °C, n = 3; for Ratio of IC50 of Kojic Acid to IC50 of TSC: mushroom tyrosinase diphenolase activity. In kind it is biochemical, Agaricus bisporus. The procedure:
In order to determine the IC50, dose–response analysis for all investigated compounds was performed. […] The enzyme was isolated from Agaricus bisporus, purchased from a local supplier in Wroclaw, and prepared as described in our previous papers, according to known procedures reported in the literature. The full description of enzyme preparation is included in the Supplementary Materials (Section 2). […] L-DOPA was dissolved in a 0.15 mM phosphoric (V) acid solution to a concentration of 5 mM. […] The isolated tyrosinase solution (0.5 mg/mL, 40,000 U/mg) was diluted 10 times in sodium phosphate buffer (0,1 M, pH 6.8). […] The optimal ionic strength and pH for tyrosinase activity were provided by 0.1 M sodium phosphate buffer (pH 6.8). […] The control sample contained the same reagents as the test samples except for the substrate. […] The concentration of L-3,4-dihydroxyphenylalanine (L-DOPA) was 1 mM in all the cases.

The subject of assay [2] is B16F10 murine melanoma cells. Description: Measurement of melanin production in α-MSH-stimulated cells. In kind it is cell-based. The note with it: for IC50: B16F10 cells stimulated with α-MSH 100 nM, 48 h with inhibitor, absorbance 405 nm, read-out: Inhibition of Melanin Production IC50. As to the method:
In the presence of α-MSH, the cells were treated with the inhibitors after 24 h. […] Kojic acid was used as a positive control, and dimethyl sulfoxide (DMSO) was used as a solvent control. Melanin content was measured spectrophotometrically at 405 nm. […] Cells were maintained in 5% CO2 at 37 °C. […] The cells were seeded into a 96-well plate (5 × 10^3 cells/well) and stimulated with α-MSH (100 nM, Sigma-Aldrich, Taufkirchen, Germany). […] After 48 h of incubation with inhibitors, cells were solubilized in 1 N sodium hydroxide (1 N, 60 °C, 2 h). In order to measure melanin content, absorbance was measured (λ = 405 nm) using a microplate reader.

For assay [3], the system named is B16F10 murine melanoma cells. Description: Cell proliferation assay (MTT). The assay is classed as cell-based. Particulars: read-out: Inhibition of Cell Proliferation IC50. As to the method: In the presence of α-MSH, the cells were treated with the inhibitors after 24 h. […] Kojic acid was used as a positive control, and dimethyl sulfoxide (DMSO) was used as a solvent control. Melanin content was measured spectrophotometrically at 405 nm. […] Cells were maintained in 5% CO2 at 37 °C. Cell viability was estimated using the MTT colorimetric assay as described in our previous papers and by Bellei et al.. […] Kojic acid and DMSO were used as controls. MTT was added to wells (0.625 mg/mL, Sigma-Aldrich, Taufkirchen, Germany) for the last 4 h. Then, lysing buffer was added to dissolve insoluble formazan. The absorbance was measured (λ = 570 nm) using a Thermo Lab Multiscan RC microplate reader.

Assay [4] has as its system mushroom tyrosinase. In words: Kinetic studies of tyrosinase inhibition (Lineweaver-Burk and secondary plots). In kind it is biochemical, Agaricus bisporus. Particulars: for Inhibition Mechanism / Inhibition Type: diphenolase activity of mushroom tyrosinase, L-DOPA; for Inhibition Type: Lineweaver-Burk plot; for Ki: n = 3, secondary plots, read-out: Ki ± Standard Error (inhibition constant for enzyme-inhibitor complex). As to the method: The kinetics of the interaction between TSCs 1–12 and mushroom tyrosinase were determined. […] The inhibition type was determined through creation of the Lineweaver–Burk plot (double reciprocal plot), which enables easier analysis of the Michaelis–Menten plot. […] Inhibition constants Ki were determined from the secondary plots of km (Michaelis constant) versus the inhibitor concentration for competitive inhibition and by the secondary plots of the slope of the lines from the Lineweaver–Burk plot as a function of the inhibitor concentration for mixed-type inhibition. […] They were all competitive inhibitors, whereas meta- and ortho-substituted compounds were mixed inhibitors. The inhibition mechanism for the investigated compounds was also tested. […] L-DOPA was dissolved in a 0.15 mM phosphoric (V) acid solution to a concentration of 5 mM. […] The isolated tyrosinase solution (0.5 mg/mL, 40,000 U/mg) was diluted 10 times in sodium phosphate buffer (0,1 M, pH 6.8). […] The optimal ionic strength and pH for tyrosinase activity were provided by 0.1 M sodium phosphate buffer (pH 6.8). […] The control sample contained the same reagents as the test samples except for the substrate. […] (b) Secondary plot of km versus inhibitor concentrations for determination of Ki for competitive inhibition. (c) Plot to determine the inhibitory mechanism.

`C/C(=N/NC(N)=S)c1ccccc1` [Acetophenone TSC, acetophenone thiosemicarbazones]: in assay [1], the IC50 turned out to be 1.5 µM and the “Ratio of IC50 of Kojic Acid to IC50 of TSC” value (shortened to “Ratio of IC50 of Kojic Acid”) is given as 13.2.

Turning to `NC(=S)N/N=C\c1ccccc1` [Benzaldehyde TSC, benzaldehyde thiosemicarbazone, reference compound], in assay [1], the IC50 amounted to 3.4 µM and the “Ratio of IC50 of Kojic Acid” value came to 5.6.

On to `C[S+](C)[O-]` [DMSO, dimethyl sulfoxide], for which the IC50 came to 8020 µM in assay [2] and 166 µM in assay [3] (48 h).

As for `O=c1cc(CO)occ1O` [Kojic acid, reference compound], the “Inhibition Mechanism” value in assay [4] is “reversible”. Further, the “Inhibition Type” value in assay [4] was “mixed”. The IC50 in assay [2] (Mus musculus, B16-F10, 48 h) worked out at 114 µM; in assay [3] (Mus musculus, B16-F10, 48 h), 153 µM.

With `COc1ccccc1C(C)=NNC(N)=S` [TSC 1, 2’-methoxyacetophenone thiosemicarbazone], in assay [1], the IC50 turned out to be 12.2 µM and the “Ratio of IC50 of Kojic Acid” value is 1.6. In assay [4], the “Inhibition Mechanism” value was “reversible”, the “Inhibition Type” value was “mixed-type” and the Ki was 5 ± 1.4 µM. Further, the IC50 in assay [2] (Mus musculus, B16-F10, 48 h) amounted to 39.2 µM. Further, the IC50 in assay [3] (Mus musculus, B16-F10, 48 h) was 45.2 µM.

Take `COc1cccc(/C(C)=N/NC(N)=S)c1` [TSC 2, (E)-3’-Methoxyacetophenone thiosemicarbazone]: in assay [1], the IC50 worked out at 1.9 µM and the “Ratio of IC50 of Kojic Acid” value amounted to 10.5. Also, in assay [4], the “Inhibition Mechanism” value is listed as “reversible”, the “Inhibition Type” value is reported as “mixed-type” and the Ki turned out to be 1 ± 0.1 µM. Further, the IC50 in assay [3] (Mus musculus, B16-F10, 48 h) amounted to 22.4 µM.

With `COc1ccc(/C(C)=N/NC(N)=S)cc1` [TSC 3, (E)-4’-Methoxyacetophenone thiosemicarbazone], in assay [1], the IC50 stood at 1.8 µM and the “Ratio of IC50 of Kojic Acid” value was found to be 11.1. In assay [4], the “Inhibition Mechanism” value was “reversible”, the “Inhibition Type” value was “competitive” and the Ki is 0.6 ± 0.01 µM. Moreover, the “Inhibition Type” value in assay [4] (listed as Compound 3) is listed as “competitively”. For the same molecule, in assay [3] (Mus musculus, B16-F10, 48 h), the IC50 amounted to 20.3 µM.

With `CC(=NNC(N)=S)c1ccccc1N` [TSC 4, 2’-aminoacetophenone thiosemicarbazone], in assay [1], the IC50 was 11.3 µM and the “Ratio of IC50 of Kojic Acid” value was found to be 1.8. In assay [4], the “Inhibition Mechanism” value is “reversible”, the “Inhibition Type” value is “mixed-type” and the Ki is 8 ± 0.9 µM. In assay [2] (Mus musculus, B16-F10, 48 h), the IC50 came out at 208 µM.

Turning to `C/C(=N\NC(N)=S)c1cccc(N)c1` [TSC 5, (E)-3’-Aminoacetophenone thiosemicarbazone], in assay [1], the IC50 was 0.65 µM and the “Ratio of IC50 of Kojic Acid” value is recorded as 30.6. Moreover, in assay [4], the “Inhibition Mechanism” value is “reversible”, the “Inhibition Type” value is “mixed-type” and the Ki came to 0.6 ± 0.1 µM. Besides, in assay [2] (Mus musculus, B16-F10, 48 h), the IC50 is 88.9 µM. Further, the IC50 in assay [3] (Mus musculus, B16-F10, 48 h) was found to be 150 µM.

Consider `C/C(=N\NC(N)=S)c1ccc(N)cc1` [TSC 6, (E)-4’-Aminoacetophenone thiosemicarbazone], for which, in assay [4], the “Inhibition Mechanism” value is “reversible”, the “Inhibition Type” value is reported as “competitively” and the Ki was determined as 0.2 ± 0.06 µM. In addition, in assay [2] (Mus musculus, B16-F10, 48 h), the IC50 turned out to be 139 µM. In assay [3] (Mus musculus, B16-F10, 48 h), the IC50 turned out to be 155 µM.

Regarding `CC(=NNC(N)=S)c1ccccc1O` [TSC 7, 2’-hydroxyacetophenone thiosemicarbazone], in assay [1], the IC50 is 1.2 µM and the “Ratio of IC50 of Kojic Acid” value is 16.5. In assay [4], the “Inhibition Mechanism” value was “reversible”, the “Inhibition Type” value is listed as “mixed-type” and the Ki came out at 0.7 ± 0.1 µM. The IC50 in assay [2] was found to be 21.7 µM. The IC50 in assay [2] (Mus musculus, B16-F10, 48 h) was < 30 µM. In addition, the IC50 in assay [3] (Mus musculus, B16-F10, 48 h) amounted to 37.3 µM.

As for `C/C(=N\NC(N)=S)c1cccc(O)c1` [TSC 8, (E)-3’-Hydroxyacetophenone thiosemicarbazone], in assay [1], the IC50 worked out at 0.95 µM; the “Ratio of IC50 of Kojic Acid” value was 20 and 20.9. In addition, in assay [4], the “Inhibition Mechanism” value is reported as “reversible”, the “Inhibition Type” value is “mixed-type” and the Ki came to 0.6 ± 0.08 µM. In addition, in assay [2] (Mus musculus, B16-F10, 48 h), the IC50 is 69.5 µM. For the same molecule, the IC50 in assay [3] (Mus musculus, B16-F10, 48 h) was determined as 103 µM.

In the case of `C/C(=N\NC(N)=S)c1ccc(O)cc1` [TSC 9, (E)-4’-Hydroxyacetophenone thiosemicarbazone], the IC50 in assay [1] is 0.8 µM; in assay [2] it was 25.2 µM; in assay [2] (Mus musculus, B16-F10, 48 h) it was < 30 µM; in assay [3] (Mus musculus, B16-F10, 48 h), 115 µM. In assay [1], the “Ratio of IC50 of Kojic Acid” value is 20 and 24.9. Further, the “Inhibition Mechanism” value in assay [4] is given as “reversible”. In addition, the “Inhibition Type” value in assay [4] is “competitive”; in assay [4] (listed as Compound 9) it was “competitively”. Also, the Ki in assay [4] is 0.6 ± 0.06 µM. Further, the “Ratio of IC50 for the inhibition of B16F10 cell proliferation to IC50 for the inhibition of melanin production” value in assay [2] (B16F10 cells) came to 4.6.

Take `C/C(=N\NC(N)=S)c1ccccc1[N+](=O)[O-]` [TSC 10, (E)-2’-Nitroacetophenone thiosemicarbazone]: in assay [1], the IC50 was > 150 µM and the “Ratio of IC50 of Kojic Acid” value came out at 0.1. In assay [4], the “Inhibition Mechanism” value is “reversible”, the “Inhibition Type” value is “mixed-type” and the Ki was determined as 8.6 ± 0.5 µM. Also, in assay [2] (Mus musculus, B16-F10, 48 h), the IC50 amounted to 77.8 µM. The IC50 in assay [3] (Mus musculus, B16-F10, 48 h) turned out to be 93.2 µM.

In the case of `C/C(=N\NC(N)=S)c1cccc([N+](=O)[O-])c1` [TSC 11, (E)-3’-Nitroacetophenone thiosemicarbazone], in assay [1], the IC50 is 14.2 µM and the “Ratio of IC50 of Kojic Acid” value is listed as 1.4. Also, in assay [4], the “Inhibition Mechanism” value was “reversible” and the Ki came out at 0.4 ± 0.02 µM. Also, the “Inhibition Type” value in assay [4] (listed as Compound 11) is reported as “competitively”. The IC50 in assay [2] (Mus musculus, B16-F10, 48 h) was 44 µM. Moreover, the IC50 in assay [3] (Mus musculus, B16-F10, 48 h) amounted to 44.8 µM.

Take `C/C(=N\NC(N)=S)c1ccc([N+](=O)[O-])cc1` [TSC 12, (E)-4’-Nitroacetophenone thiosemicarbazone]: in assay [1], the “Ratio of IC50 of Kojic Acid” value stood at 12.4. In assay [4], the “Inhibition Mechanism” value was “reversible” and the “Inhibition Type” value is listed as “mixed”. Moreover, the IC50 in assay [3] (Mus musculus, B16-F10, 48 h) was found to be 137 µM.

As usually defined, the Ki is a dissociation constant, usually derived from enzyme kinetics or from competition with a known ligand.
